Values joined by “and” are separate entries in the source; they are usually repeats but may differ in a detail not shown here. Identical values can stand only once. Like-named read-outs stand apart in the source and are kept apart here.
Tests used:
[1] = test system: multidrug resistant HIV-1 strain RT-MDR (V106A, 74V, 41L, 215Y); assay: microbe, parasite or virus in culture; type: cell-based
[2] = test system: HIV-1 strain A17 variant (Y181C plus K103N); assay: microbe, parasite or virus in culture; type: cell-based
Description: (§1) Normal human peripheral blood mononuclear cells (PBMNC) from HIV-negative donors were cultured 72 hours in RPMI 1640 supplemented with 20%(v/v) heat-inactivated fetal bovine serum (FBS), 3% interleukin-2, 2 mM L-glutamine, 25 mM HEPES, 2 g/L NaHCO3, 50 μg/ml gentamicin, and 4 μg/ml phytohemagglutinin prior to exposure to HIV-1. The incubated cells were then exposed to HIV-1 at a multiplicity of infection (MOI) of 0.1 during a one-hour adsorption period at 37° C. in a humidified 5% CO2 atmosphere. Subsequently, infected cells were cultured in 96-well microtiter plates (100 μl/well; 2×10^6 cells/ml) in the presence of test compounds, including appropriate controls. Aliquots of culture supernatants were removed from the wells on the seventh day after infection for p24 antigen assays. The methods used in the P24 assay were as previously described in Uckun, et al., Antimicrobial Agents and Chemotherapy, 1998, 42, 383; Zarling, et al., Nature, 1990, 347, 92-95; Erice, et al., Antimicrob. Ag. Chemother., 1993, 37, 835.
(§2) The applied p24 enzyme immunoassay (EIA) was the unmodified kinetic assay commercially available from Coulter Corporation/Immunotech, Inc. (Westbrooke, Me.). In the assay, a murine monoclonal antibody against HIV core protein is coated onto microwell strips. Antigen (HIV core protein) present in the test culture supernatant samples binds the antibody and the bound antibody-antigen complex is quantitated. Percent viral inhibition was calculated by comparing the p24 values from the test substance-treated infected cells with p24 values from untreated infected cells (i.e., virus controls).

[3] = test system: NNI-resistant HIV-1 strain A17 (Y181C); assay: microbe, parasite or virus in culture; type: cell-based
Description: as §1, §2

HIV-1 strain HTLVIIIB = assay: p24 antigen assay of HIV-1 replication in human PBMC; type: cell-based; conditions: read-out: IC50 HTLVIIIB
Description: The HIV-1 strain HTLVIIIB (kindly provided by Dr. Neal T. Wetherall, VIROMED Laboratories, Inc.), was propagated in CCRF-CEM cells, and used in in vitro assays of the anti-HIV-1 activity of the synthesized compounds of the invention. Cell-free supernatants of HTLVIIIB-infected CCRF-CEM cells were harvested, dispensed into 1 ml aliquots, and frozen at −70° C.
The incubated cells were then exposed to HIV-1 at a multiplicity of infection (MOI) of 0.1 during a one-hour adsorption period at 37° C. in a humidified 5% CO2 atmosphere. Subsequently, infected cells were cultured in 96-well microtiter plates (100 μl/well; 2×10^6 cells/ml) in the presence of test compounds, including appropriate controls. Aliquots of culture supernatants were removed from the wells on the seventh day after infection for p24 antigen assays. […] Ag.
as §2

[4] = target: T1, recombinant HIV-1 reverse transcriptase (rRT) (Human immunodeficiency virus type 1 group M subtype B, UniProt P04585); assay: Cell-free RT inhibition assay (Quan-T-RT, scintillation proximity); type: biochemical
T1 construct: recombinant HIV-1 reverse transcriptase (rRT)
Description: In addition, the activity of the test compounds to inhibit recombinant HIV-1 reverse transcriptase (rRT) activity was determined using the Quan-T-RT assay system (Amersham, Arlington Heights, Ill.), which utilizes the scintillation proximity assay principle. […] Data for both bioassays is reported as IC50 values.

[5] = Human immunodeficiency virus 1, H9, read-out: IC50 RT-MDR
[6] = Human immunodeficiency virus 1, read-out: IC50 A17 (second column; A17 variant)
[7] = Human immunodeficiency virus 1, read-out: IC50 A17
[8] = Human immunodeficiency virus 1, 168 h, read-out: IC50 A17 (second column; A17 variant)
[9] = Human immunodeficiency virus 1, PBMC, human PBMC, p24

Q: For `CC(NC(=S)Nc1ccc(Cl)cn1)C1CCCCC1` (stereo not shown) [PHI-510^R], which IC50 [1, 5] is on record?
A: 60 nM

Q: And the IC50 [2, 6]?
A: 8200 nM

Q: And the IC50 [3, 7]?
A: 70 nM

Q: For `S=C(NCCc1ccccn1)Nc1ccc(Br)cn1` [Trovirdine, reference compound], which IC50 [1, 5] is on record?
A: 20 nM

Q: What about the IC50 [2, 8] of the same compound?
A: > 100000 nM

Q: What about the IC50 [2, 6] of the same compound?
A: > 100000 nM

Q: What about the IC50 [3, 7] of the same compound?
A: 500 nM

Q: What about the IC50 (HIV-1 strain HTLVIIIB; Human immunodeficiency virus 1, PBMC) of the same compound?
A: 7 nM

Q: Which IC50 [1, 5] does the source give for `Cc1ccnc2c1NC(=O)c1cccnc1N2C1CC1` [Nevirapine, reference compound] here?
A: 5000 nM

Q: And the IC50 [2, 6]?
A: > 100000 nM

Q: And the IC50 [3, 7]?
A: > 100000 nM

Q: What about the IC50 (HIV-1 strain HTLVIIIB; [9]) of the same compound?
A: 34 nM

Q: Which results are given for `C[C@@H](NC(=S)Nc1ccc(Br)cn1)c1ccccc1` [PHI-511^R]?
A: IC50 [1, 5]: 5 nM; times more active than delavirdine ([1]; RT-MDR): 80 times; times more active than nevirapine ([1]; RT-MDR): 1,000 times; times more active than trovirdine ([1]; RT-MDR): 4 times; melting point: 170 to 172 °C; IC50 [2, 6]: 2700 nM; times more active than HI-240 ([3]; A17): 20 times; times more active than delavirdine ([3]; A17): 5,000 times; times more active than nevirapine ([3]; A17): 10,000 times; times more active than trovirdine ([3]; A17): 50 times; IC50 [3, 7]: 10 nM; IC50 (HIV-1 strain HTLVIIIB; human PBMC, p24, listed as PHI-511^S): > 1000 nM; IC50 (HIV-1 strain HTLVIIIB; human PBMC, p24): 10 nM

Q: What does the source list for `C[C@@H](NC(=S)Nc1nccs1)C1CCCCC1` [PHI-513^R, N-[1-(1-(1R)-Cyclobexyl)ethyl]-N′-[2-(thiazolyl)]thiourea]?
A: IC50 [1, 5]: 5600 nM; IC50 [4]: 13000 nM and > 100000 nM; melting point: 118 to 119 °C; IC50 [2, 6]: 5800 nM; IC50 [3, 7]: 900 nM; IC50 (HIV-1 strain HTLVIIIB; human PBMC, p24, listed as PHI-513^S): > 1000 nM; IC50 (HIV-1 strain HTLVIIIB; human PBMC, p24): 1 nM

Q: What does the source list for `Fc1ccccc1CCNC(=S)Nc1ccc(Br)cn1` [HI-240, reference compound]?
A: IC50 ([1]; H9 cells, read-out: IC50 RT-MDR): 5 nM; IC50 [4]: 600 nM; IC50 ([2]; Y181C plus K103N mutations, read-out: IC50 A17 (second column; A17 variant)): 41000 nM; IC50 ([3]; Y181C mutation, read-out: IC50 A17): 200 nM; IC50 (HIV-1 strain HTLVIIIB; human PBMC, p24): < 1 nM

Q: What does the source list for `C[C@@H](NC(=S)Nc1ccc(Br)cn1)C1CCCCC1` [PHI-509^R, N-[1-(1-(1R)-Cyclohexylethyl)]-N-[2-(5-bromopyridyl)] thiourea]?
A: IC50 [1, 5]: 200 nM; melting point: 176 to 177 °C; IC50 [2, 8]: 10000 nM; IC50 [3, 7]: 400 nM; IC50 (HIV-1 strain HTLVIIIB; human PBMC, p24, listed as PHI-509^S): > 1000 nM; IC50 (HIV-1 strain HTLVIIIB; human PBMC, p24): 1 nM

Q: With `C[C@@H](NC(=S)Nc1ccc(Cl)cn1)c1ccccc1` [PHI-512^R] as the compound, how does the IC50 [1, 5] read?
A: 10 nM

Q: And the melting point?
A: 185 to 187.5 °C

Q: And the IC50 [2, 6]?
A: 10200 nM

Q: What about the IC50 [3, 7] of the same compound?
A: 200 nM

Q: What about the IC50 (HIV-1 strain HTLVIIIB; [9]) of the same compound?
A: 10 nM

Q: Which IC50 [1, 5] does the source give for `CC(C)Nc1cccnc1N1CCN(C(=O)c2cc3cc(NS(C)(=O)=O)ccc3[nH]2)CC1` [Delavirdine, reference compound] here?
A: 400 nM

Q: And the IC50 [2, 8]?
A: > 100000 nM

Q: And the IC50 [2, 6]?
A: > 100000 nM

Q: What about the IC50 [3, 7] of the same compound?
A: 50000 nM

Q: And the IC50 (HIV-1 strain HTLVIIIB; [9])?
A: 9 nM

Q: Which IC50 [4] does the source give for `C[C@H](NC(=S)Nc1ccccn1)C1CCCCC1` [PHI-542] here?
A: > 100000 nM

Q: And the IC50 (HIV-1 strain HTLVIIIB; [9])?
A: > 1000 nM

Q: Which results are given for `C[C@@H](NC(=S)Nc1ccccn1)C1CCCCC1` [PHI-543]?
A: IC50 [4]: > 100000 nM; melting point: 125 to 127 °C; IC50 (HIV-1 strain HTLVIIIB; [9]): > 1000 nM
